Experimental findings from ChEMBL document CHEMBL5233276, “Cathepsin C inhibitors as anti-inflammatory drug discovery: Challenges and opportunities” (Eur J Med Chem, 2021) are described below.

Molecules are shown by their SMILES. Where a SMILES comes first, the peptide text is derived from it. The star is where a group is joined. CHN2 = [N-]=[N+]=C*

Experiment [1] deals with T1, Dipeptidyl peptidase 1 (Homo sapiens, UniProt P53634). As to the kind of experiment: Inhibition of human Cathepsin C using Ala-4-[ 125 I]Phe-DMK as substrate preincubated for 30 mins followed by substrate addition measured after 6 to 24 hrs.
T1 sequence (P53634 25-134 limits assumed): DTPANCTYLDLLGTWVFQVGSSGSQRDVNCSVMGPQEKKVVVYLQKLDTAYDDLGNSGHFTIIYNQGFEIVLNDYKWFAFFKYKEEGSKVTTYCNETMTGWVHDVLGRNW
T1 sequence (P53634 231-394 limits assumed): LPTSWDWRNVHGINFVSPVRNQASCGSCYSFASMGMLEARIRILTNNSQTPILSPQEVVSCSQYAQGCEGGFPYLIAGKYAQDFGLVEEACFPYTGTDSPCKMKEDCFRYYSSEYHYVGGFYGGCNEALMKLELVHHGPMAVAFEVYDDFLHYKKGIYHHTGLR
T1 sequence (P53634 395-463 limits assumed): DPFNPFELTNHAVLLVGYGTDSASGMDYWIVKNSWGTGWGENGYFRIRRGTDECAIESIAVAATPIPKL
Experiment [2] concerns the target T1, Dipeptidyl peptidase 1. The experiment is described as follows: Inhibition of Cathepsin C (unknown origin).
The target of experiment [3] is T1, Dipeptidyl peptidase 1. The experiment is described as follows: Inhibition of human Cathepsin C using Gly-Phe-paranitroanilide as substrate incubated for 12 mins.
The target of experiment [4] is T1, Dipeptidyl peptidase 1. The experiment is described as follows: Inhibition of human Cathepsin C using Gly- L -Phe-p-nitroanilide.HCl as substrate.
In experiment [5] the target is T1, Dipeptidyl peptidase 1. The experiment is described as follows: Inhibition of human Cathepsin C using Z-Arg-Arg-AM as substrate at 3 microM relative to control.
Experiment [6] concerns the target T1, Dipeptidyl peptidase 1. The experiment is described as follows: Inhibition of human Cathepsin C using Gly-Phe-AMC as substrate assessed as kobs/[I].
In experiment [7] the test system is Mus musculus. As to the kind of experiment: Inhibition of Cathepsin C in mouse spleen measured at 5 mg/kg ip, relative to control. The format is organism-based.

Turning to `N#[N+][CH-]C(=O)[C@H](Cc1ccccc1)NC(=O)CN`, in experiment [1], half-maximal inhibition (IC50) required 50 nM.
In experiment [2], `C=CC(=O)Nc1cc2c(Nc3ccc(F)c(Cl)c3)ncnc2cc1OCCCN1CCOCC1` [CANERTINIB] displayed an IC50 of 120 nM.
Take `CC[C@H](N)C(=O)N[C@]1(C#N)C[C@@H]1c1ccc(-c2ccc(S(=O)(=O)N3CCN(C)CC3)cc2)cc1`: the IC50 in experiment [3] is 15 nM.
In turn, `CC[C@@H](/C=C/C(=O)N1CCc2ccccc21)NC(=O)C1(N)CCOCC1` yielded a 50% inhibitory concentration (IC50) in experiment [2] of 1 nM.
As to `CC(C)CC(NC(=O)CN)P(=O)(O)CCC(=O)O` (stereo unspecified), the IC50 in experiment [4] was 39000 nM.
In experiment [5], `C[C@@H](O)[C@H](N)C(=O)N[C@@H](/C=C/S(C)(=O)=O)CCC(=O)O` returned an IC50 of 4900 nM. The Ratio in experiment [6] was 2900 M⁻¹ s⁻¹.
As for `[N-]=[N+]=CC(=O)[C@H](Cc1ccccc1)NC(=O)CN` (H-Gly-Phe-CHN2), the inhibition in experiment [5] and in experiment [7] was more than 90% throughout.
Compound `C[C@H](N)C(=O)N[C@H](/C=C/S(=O)(=O)c1ccccc1)CCc1ccccc1` came in with an ID50 in experiment [5] of 100 nM. In addition, the Ratio in experiment [6] is 2 10^6/M/s.
